Source: patent US10150762B2, “Trifluoromethyl alcohols as modulators of RORγt” (Janssen Pharmaceutica NV, priority 2014, dated 2018)
Like-named read-outs stand apart in the source and are kept apart here. Marks after values point to notes of the source that are not given here.

Assays:
full-length human RORγt [1] = biological target: T1, full-length human RORγt (Homo sapiens (Human), UniProt P51449); type: cell-based; conditions: for IC50: HEK293T cells, Conditions A, read-out: RORγt (FL) Reporter Assay A, IC50
T1 sequence (P51449 other isoform, or with tags, fused parts or gaps): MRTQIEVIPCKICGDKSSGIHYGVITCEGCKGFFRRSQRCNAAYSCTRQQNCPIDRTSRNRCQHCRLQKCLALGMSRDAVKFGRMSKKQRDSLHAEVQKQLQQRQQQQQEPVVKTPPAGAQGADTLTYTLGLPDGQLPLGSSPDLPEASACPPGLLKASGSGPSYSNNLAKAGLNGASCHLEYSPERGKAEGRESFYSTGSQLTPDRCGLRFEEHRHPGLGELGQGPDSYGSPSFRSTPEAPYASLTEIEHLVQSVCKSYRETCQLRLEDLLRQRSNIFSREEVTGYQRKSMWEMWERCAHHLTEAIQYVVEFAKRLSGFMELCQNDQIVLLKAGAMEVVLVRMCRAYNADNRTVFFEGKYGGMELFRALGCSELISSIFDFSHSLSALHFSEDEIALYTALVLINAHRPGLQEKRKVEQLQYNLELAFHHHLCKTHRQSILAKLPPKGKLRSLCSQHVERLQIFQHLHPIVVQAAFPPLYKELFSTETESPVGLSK
Procedure: (§1) RORγt (full-length human) Reporter Assay:
Luminescence was measured using a BMG LUMIstar OPTIMA plate reader, after addition of 75 μL/well firefly luciferase buffer, followed by 75 μL/well Renilla luciferase buffer.

[2] = biological target: wild type human RORγt ligand binding domain (RORγt LBD) (Homo sapiens (Human), UniProt P51449); conditions: read-out: ThermoFluor® Assay, Kd
Sequence of wild type human RORγt ligand binding domain (RORγt LBD) (P51449 other isoform, or with tags, fused parts or gaps): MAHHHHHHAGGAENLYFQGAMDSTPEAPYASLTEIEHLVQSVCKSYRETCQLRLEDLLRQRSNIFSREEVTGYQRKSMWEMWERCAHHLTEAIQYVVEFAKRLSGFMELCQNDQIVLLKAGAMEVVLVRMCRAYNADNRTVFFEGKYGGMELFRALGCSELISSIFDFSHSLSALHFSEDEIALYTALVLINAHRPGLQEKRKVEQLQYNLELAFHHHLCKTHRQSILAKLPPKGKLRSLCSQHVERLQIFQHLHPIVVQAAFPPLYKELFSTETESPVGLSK
Procedure: This approach is applicable to a wide variety of systems, and rigorous in theoretical interpretation through quantitation of equilibrium binding constants (KD).
The shift in the melting point described as a ΔTm is proportional to the concentration and affinity of the ligand.
RORγt ThermoFluor® Assay Construct
ThermoFluor® experiments were carried out using instruments owned by Janssen Research and Discovery, L.L.C. through its acquisition of 3-Dimensional Pharmaceuticals, Inc. 1,8-ANS (Invitrogen) was used as a fluorescent dye. Protein and compound solutions are dispensed into black 384-well polypropylene PCR microplates (Abgene) and overlayed with silicone oil (1 μL, Fluka, type DC 200) to prevent evaporation.
Fluorescence was measured by continuous illumination with UV light (Hamamatsu LC6) supplied via fiber optic and filtered through a band-pass filter (380-400 nm; >6 OD cutoff). Fluorescence emission of the entire 384-well plate was detected by measuring light intensity using a CCD camera (Sensys, Roper Scientific) filtered to detect 500±25 nm, resulting in simultaneous and independent readings of all 384 wells. Images were collected at each temperature, and the sum of the pixel intensity in a given area of the assay plate was recorded versus temperature. Reference wells contained RORγt without compounds, and the assay conditions were as follows: • 0.065 mg/mL RORγt • 60 μM 1,8-ANS • 100 mM Hepes, pH 7.0 • 10 mM NaCl • 2.5 mM GSH • 0.002% Tween-20

full-length human RORγt [3] = biological target: T1, full-length human RORγt; conditions: for IC50: read-out: RORγt (FL) Reporter Assay B or C, IC50, HEK293T cells, Conditions B or C
Source text: as §1
All three provide similar data and can be used interchangeably.

[4] = system: IL-17 production by CD4 T cells; test: Human Th17 Assay; type: cell-based; conditions: 72 h, read-out: Human Th17 Assay, IC50
Source text: Human Th17 Assay The human Th17 assay tests the effect of RORγt modulatory compounds on IL-17 production by CD4 T cells under conditions which favor Th17 differentiation. Total CD4+ T cells were isolated from the peripheral blood mononuclear cells (PBMC) of healthy donors using a CD4+ T cell isolation kit II, following the manufacturer's instructions (Miltenyi Biotec). […] The final concentrations of antibodies and cytokines (R&D Systems) in differentiation medium were: 3×10^6/mL anti-CD3/CD28 beads (prepared using human T cell activation/expansion kit, Miltenyi Biotec), 10 μg/mL anti-IL4, 10 μg/mL anti-IFNγ, 10 ng/mL IL113, 10 ng/mL IL23, 50 ng/mL IL6, 3 ng/mL TGFβ and 20 U/mL IL2. Cells were cultured at 37° C. and 5% CO2 for 3 days. Supernatants were collected and the accumulated IL-17 in culture was measured by using MULTI-SPOT® Cytokine Plate following manufacture's instruction (Meso Scale Discovery). The plate was read using Sector Imager 6000, and IL-17 concentration was extrapolated from the standard curve. The IC50s were determined by GraphPad.

[5] = *** 0.67 μM compound concentration

In the case of `C[C@H]1C[C@@H](F)CCN1C(=O)c1nc(C(=O)NCC(C)(C)O)sc1-c1ccc(C(O)(C(F)(F)F)C(F)(F)F)c(Cl)c1Cl` [Example 2/1, 5-(2,3-Dichloro-4-(1,1,1,3,3,3-hexafluoro-2-hydroxypropan-2-yl)phenyl)-4-((2S,4S)-4-fluoro-2-methylpiperidine-1-carbonyl)-N-(2-hydroxy-2-methylpropyl)thiazole-2-carboxamide], the “RORγt (FL) Reporter Assay A, % inhibition” value (full-length human RORγt [1]; ** 2 μM compound concentration) is reported as 103** %, the IC50 (full-length human RORγt [1]) is reported as 14 nM and the Kd [2] is reported as 0.16 nM.

For `C[C@H]1CC(F)(F)CN1C(=O)c1nc(C(=O)NCC(C)(C)O)sc1-c1ccc(C(O)(C(F)(F)F)C(F)(F)F)c(Cl)c1Cl` [Example 2/2, (S)-5-(2,3-Dichloro-4-(1,1,1,3,3,3-hexafluoro-2-hydroxypropan-2-yl)phenyl)-4-(4,4-difluoro-2-methylpyrrolidine-1-carbonyl)-N-(2-hydroxy-2-methylpropyl)thiazole-2-carboxamide], the “RORγt (FL) Reporter Assay A, % inhibition” value (full-length human RORγt [1]; [5]) was 101*** %, the IC50 (full-length human RORγt [1]) was 10 nM and the Kd [2] was 0.22 nM.

For `C[C@H]1CCCN1C(=O)c1nc(C(=O)NCC(C)(C)O)sc1-c1ccc(C(O)(C(F)(F)F)C(F)(F)F)c(Cl)c1Cl` [Example 2/8, (S)-5-(2,3-Dichloro-4-(1,1,1,3,3,3-hexafluoro-2-hydroxypropan-2-yl)phenyl)-N-(2-hydroxy-2-methylpropyl)-4-(2-methylpyrrolidine-1-carbonyl)thiazole-2-carboxamide], the “RORγt (FL) Reporter Assay B or C, % inhibition” value (full-length human RORγt [3]; ** 2 μM compound concentration) was 108** %, the IC50 [4] was 17 nM and the “RORγt (FL) Reporter Assay A, % inhibition” value (full-length human RORγt [1]; ** 2 μM compound concentration) was 103** %.

For `CC(C)(O)CNC(=O)c1nc(C(=O)N2CCC(F)CC2)c(-c2ccc(C(O)(C(F)(F)F)C(F)(F)F)c(Cl)c2Cl)s1` [Example 2/10, 5-(2,3-Dichloro-4-(1,1,1,3,3,3-hexafluoro-2-hydroxypropan-2-yl)phenyl)-4-(4-fluoropiperidine-1-carbonyl)-N-(2-hydroxy-2-methylpropyl)thiazole-2-carboxamide], the “RORγt (FL) Reporter Assay A, % inhibition” value (full-length human RORγt [1]; ** 2 μM compound concentration) was 105** %, the IC50 (full-length human RORγt [1]) was 25 nM and the Kd [2] was 13 nM.

With `CN(C(=O)c1nc(C(=O)NCC(C)(C)O)sc1-c1ccc(C(O)(C(F)(F)F)C(F)(F)F)c(Cl)c1Cl)C1CCC1` [Example 2/13, N^4—Cyclobutyl-5-(2,3-dichloro-4-(1,1,1,3,3,3-hexafluoro-2-hydroxypropan-2-yl)phenyl)-N^Z-(2-hydroxy-2-methylpropyl)-N^4-methylthiazole-2,4-dicarboxamide] the “RORγt (FL) Reporter Assay A, % inhibition” value (full-length human RORγt [1]; [5]) was 103*** %, the IC50 (full-length human RORγt [1]) was 10 nM and the Kd [2] was 0.43 nM.

`CCN(C(=O)c1nc(C(=O)NCC(C)(C)O)sc1-c1ccc(C(O)(C(F)(F)F)C(F)(F)F)c(Cl)c1Cl)C1CCC1` [Example 2/15, N^4—Cyclobutyl-5-(2,3-dichloro-4-(1,1,1,3,3,3-hexafluoro-2-hydroxypropan-2-yl)phenyl)-N^4-ethyl-N2-(2-hydroxy-2-methylpropyl)thiazole-2,4-dicarboxamide] was tested, and the “RORγt (FL) Reporter Assay A, % inhibition” value (full-length human RORγt [1]; [5]) was 106*** %, the IC50 (full-length human RORγt [1]) was 5 nM and the Kd [2] was 0.18 nM.

For `C[C@@H]1CCCN1C(=O)c1nc(C(=O)NCC(C)(C)O)sc1-c1ccc(C(O)(C(F)(F)F)C(F)(F)F)c(Cl)c1Cl` [Example 2/16, (R)-5-(2,3-dichloro-4-(1,1,1,3,3,3-hexafluoro-2-hydroxypropan-2-yl)phenyl)-N-(2-hydroxy-2-methylpropyl)-4-(2-methylpyrrolidine-1-carbonyl)thiazole-2-carboxamide], the “RORγt (FL) Reporter Assay A, % inhibition” value (full-length human RORγt [1]; ** 2 μM compound concentration) was 86** %.

In the case of `CCN(CC)C(=O)c1nc(C(=O)N2C[C@H](O)C[C@H](O)C2)sc1-c1ccc(C(O)(C(F)(F)F)C(F)(F)F)c(Cl)c1Cl` [Example 3/4], the “RORγt (FL) Reporter Assay A, % inhibition” value (full-length human RORγt [1]; ** 2 μM compound concentration) is reported as 100** %, the IC50 (full-length human RORγt [1]) is reported as 14 nM and the Kd [2] is reported as 10 nM.

`O=C(NC1CS(=O)(=O)C1)c1nc(C(=O)N2CCC(F)CC2)c(-c2ccc(C(O)(C(F)(F)F)C(F)(F)F)c(Cl)c2Cl)s1` [Example 6/1, 5-(2,3-Dichloro-4-(1,1,1,3,3,3-hexafluoro-2-hydroxypropan-2-yl)phenyl)-N-(1,1-dioxidothietan-3-yl)-4-(4-fluoropiperidine-1-carbonyl)thiazole-2-carboxamide] gave an IC50 [4] of 42 nM.

`C[C@H]1CC(F)(F)CN1C(=O)c1nc(C(=O)N2C[C@H](O)C[C@H](O)C2)sc1-c1ccc(C(O)(C(F)(F)F)C(F)(F)F)cc1C(F)(F)F` [Example 9/1, ((S)-4,4-Difluoro-2-methylpyrrolidin-1-yl)(2-((3R,5S)-3,5-dihydroxypiperidine-1-carbonyl)-5-(4-(1,1,1,3,3,3-hexafluoro-2-hydroxypropan-2-yl)-2-(trifluoromethyl)phenyl)thiazol-4-yl)methanone] showed an IC50 [4] of 13 nM.

`C[C@H]1CCCN1C(=O)c1nc(C(=O)NCC(C)(C)O)sc1-c1ccc(C(O)(C(F)(F)F)C(F)(F)F)cc1C(F)F` [Example 15, (S)-5-(2-(Difluoromethyl)-4-(1,1,1,3-hexafluoro-2-hydroxypropan-2-yl)phenyl)-N-(2-hydroxy-2-methylpropyl)-4-(2-methylpyrrolidine-1-carbonyl)thiazole-2-carboxamide] showed an IC50 [4] of 47 nM.

In the case of `C[C@H]1CCCN1C(=O)c1nc(C(=O)NCC(C)(C)O)sc1-c1ccc(C(O)(C(F)(F)F)C(F)(F)F)cc1Cl` [Example 15/10, (S)-5-(2-Chloro-4-(1,1,1,3,3,3-hexafluoro-2-hydroxypropan-2-yl)phenyl)-N-(2-hydroxy-2-methylpropyl)-4-(2-methylpyrrolidine-1-carbonyl)thiazole-2-carboxamide], the “RORγt (FL) Reporter Assay B or C, % inhibition” value (full-length human RORγt [3]; * 3 μM compound concentration) is reported as 97* %, the IC50 (full-length human RORγt [3]) is reported as 7.9 nM and the Kd [2] is reported as 0.26 nM.

Work on `Cc1cc(C(O)(C(F)(F)F)C(F)(F)F)ccc1-c1sc(C(=O)NCC(C)(C)O)nc1C(=O)N1CCC[C@@H]1C` [Example 19, (S)-5-(4-(1,1,1,3,3,3-Hexafluoro-2-hydroxypropan-2-yl)-2-methylphenyl)-N-(2-hydroxy-2-methylpropyl)-4-(2-methylpyrrolidine-1-carbonyl)thiazole-2-carboxamide] yielded an IC50 ([4]; IL-17 in supernatant, 3 days culture) of 55 nM.

With `Cc1cc(C(O)(C(F)(F)F)C(F)(F)F)ccc1-c1sc(C(=O)NCC(C)(C)O)nc1C(=O)N1CCCC[C@@H]1C` [Example 21/2, (S)-5-(4-(1,1,1,3,3,3-Hexafluoro-2-hydroxypropan-2-yl)-2-methylphenyl)-N-(2-hydroxy-2-methylpropyl)-4-(2-methylpiperidine-1-carbonyl)thiazole-2-carboxamide] the “RORγt (FL) Reporter Assay B or C, % inhibition” value (full-length human RORγt [3]; * 3 μM compound concentration) was 101* %, the IC50 (full-length human RORγt [3]) was 3.9 nM and the Kd [2] was 0.21 nM.
